The text below walks through data of ChEMBL document CHEMBL1140135 (J Med Chem, 2008).

Assay [1] concerns the target T1, Bifunctional dihydrofolate reductase-thymidylate synthase (Toxoplasma gondii, UniProt Q07422).
T1 sequence (Q07422 whole entry): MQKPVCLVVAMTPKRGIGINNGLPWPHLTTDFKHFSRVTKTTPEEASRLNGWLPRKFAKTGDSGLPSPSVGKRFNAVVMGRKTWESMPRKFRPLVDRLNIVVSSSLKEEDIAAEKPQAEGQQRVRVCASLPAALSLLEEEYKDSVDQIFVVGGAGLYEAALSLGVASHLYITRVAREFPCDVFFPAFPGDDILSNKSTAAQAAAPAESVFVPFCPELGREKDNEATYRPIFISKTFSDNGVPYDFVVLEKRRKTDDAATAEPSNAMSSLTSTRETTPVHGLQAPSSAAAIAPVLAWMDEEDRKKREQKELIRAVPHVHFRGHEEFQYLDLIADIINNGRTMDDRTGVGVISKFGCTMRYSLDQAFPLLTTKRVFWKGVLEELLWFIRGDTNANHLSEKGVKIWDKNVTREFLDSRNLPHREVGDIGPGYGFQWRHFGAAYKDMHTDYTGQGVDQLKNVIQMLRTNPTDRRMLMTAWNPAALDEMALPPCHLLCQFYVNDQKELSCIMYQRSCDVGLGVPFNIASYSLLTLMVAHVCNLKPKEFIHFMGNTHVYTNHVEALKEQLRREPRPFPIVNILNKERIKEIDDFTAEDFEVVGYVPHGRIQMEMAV
Description: Inhibition of Toxoplasma gondii DHFR

The target of assay [2] is T2, Dihydrofolate reductase (Homo sapiens, UniProt P00374).
T2 sequence (P00374 whole entry): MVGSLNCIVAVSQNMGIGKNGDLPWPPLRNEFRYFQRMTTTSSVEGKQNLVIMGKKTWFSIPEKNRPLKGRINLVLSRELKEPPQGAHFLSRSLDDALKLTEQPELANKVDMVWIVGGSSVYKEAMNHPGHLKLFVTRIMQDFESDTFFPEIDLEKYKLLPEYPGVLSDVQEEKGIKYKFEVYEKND
Description: Inhibition of human recombinant DHFR

For assay [3], the target named is T1, Bifunctional dihydrofolate reductase-thymidylate synthase. This is another data set of the same source.
Description: Inhibition of Toxoplasma gondii thymidylate synthase
The target of assay [4] is Thymidylate synthase (Homo sapiens, UniProt P04818).
Description: Inhibition of human thymidylate synthase
Assay [5] deals with T3, Dihydrofolate reductase (Escherichia coli) (UniProt P0ABQ4).
T3 sequence (whole entry): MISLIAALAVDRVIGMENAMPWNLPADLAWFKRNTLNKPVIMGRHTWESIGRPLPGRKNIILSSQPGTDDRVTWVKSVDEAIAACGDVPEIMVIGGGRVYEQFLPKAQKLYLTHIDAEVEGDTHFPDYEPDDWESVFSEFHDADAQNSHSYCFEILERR
Put plainly: Inhibition of Escherichia coli DHFR at >[…] uM.

Broadly, the IC50 is the concentration that gives 50% inhibition. Read a low IC50 as greater potency. One may read the inhibition as the relative decrease from the control value, in per cent.

Chain of Thymidylate synthase (P04818 whole entry): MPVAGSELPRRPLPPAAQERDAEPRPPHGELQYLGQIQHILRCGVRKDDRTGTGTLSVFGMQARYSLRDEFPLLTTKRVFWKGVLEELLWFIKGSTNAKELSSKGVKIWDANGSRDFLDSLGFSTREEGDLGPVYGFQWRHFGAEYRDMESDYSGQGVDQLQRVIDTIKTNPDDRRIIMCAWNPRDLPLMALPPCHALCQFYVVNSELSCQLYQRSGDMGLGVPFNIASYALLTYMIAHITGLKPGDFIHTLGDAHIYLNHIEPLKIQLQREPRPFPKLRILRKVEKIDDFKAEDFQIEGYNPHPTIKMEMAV

In the case of `Cc1sc2nc(N)[nH]c(=O)c2c1Sc1cc(Cl)cc(Cl)c1`, the IC50 in assay [1] stood at 64 nM; in assay [2], 5600 nM; in assay [3], 2300 nM; in assay [4], 1000 nM. This molecule had an inhibition in assay [5] of 0%.
Turning to `Cc1sc2nc(N)[nH]c(=O)c2c1Sc1ccc(Cl)c(Cl)c1`, the IC50 in assay [1] came out at 28 nM; in assay [3], 1200 nM; in assay [4] it was 110 nM. In addition, the inhibition in assay [5] amounted to 0%.
With `Cc1sc2nc(N)[nH]c(=O)c2c1Sc1ccc(Cl)cc1`, the half-maximal inhibitory concentration (IC50) in assay [1] stood at 31 nM; in assay [2] it was 1500 nM; in assay [3] it was 2600 nM; in assay [4], 260 nM.
`Cc1sc2nc(N)[nH]c(=O)c2c1Sc1ccncc1`: the IC50 in assay [1] worked out at 34 nM; in assay [2] it was 2500 nM; in assay [3], 1400 nM; in assay [4], 280 nM.
The matching figures for `Cc1sc2nc(N)[nH]c(=O)c2c1Sc1ccccc1`: 120 nM, 3500 nM, 8400 nM and 1200 nM.
With `Cc1[nH]c2nc(N)[nH]c(=O)c2c1Sc1ccc(C(=O)N[C@@H](CCC(=O)O)C(=O)O)cc1`, half-maximal inhibition in assay [2] (IC50) was put at 2200 nM.
Take `Cc1sc2nc(N)[nH]c(=O)c2c1Sc1ccc2ccccc2c1`: the IC50 is 44 nM in assay [1], 2900 nM in assay [2], 1200 nM in assay [3] and 120 nM in assay [4].
`Cc1sc2nc(N)[nH]c(=O)c2c1Sc1ccc(F)cc1`: the IC50 in assay [2] came out at 2600 nM; in assay [4] it was 1100 nM.
In turn, `Cc1sc2nc(N)[nH]c(=O)c2c1Sc1ccc([N+](=O)[O-])cc1` yielded an IC50 in assay [4] of 110 nM.
